Read-outs that look alike come from different tables or passages of the source.
Key:
Cathepsin D = Cathepsin D (Homo sapiens (Human), UniProt P07339); assay: Cathepsin D FP assay; format: biochemical; conditions: pH 4.5, read-out: CatD FP IC50
Description: (§1) BACE1 activity can be assessed in an AlphaScreen® assay. Compounds to be assessed (e.g. compounds as described in the above examples) are serially diluted 1:4 in DMSO, then plated by diluting 10 μL of compound with 40 μl of assay buffer (1×PBS, 0.01% Tween-20, pH 7.0, 0.05% BSA). The diluted compound is transferred (4 μL per well) to a 386 well assay plate and 4 μL of BACE1 enzyme ([…]) is added and incubated for 15 minutes. This assay uses a probe that is a BACE1 binding sight ligand linked to biotin, which can be displaced by test compound dependent on compound binding affinity. This of biotinylated probe (4 μL) is added and incubated for 1 hour, followed with 4 μL of donor and acceptor bead mixture and incubated for 2 hours. The fluorescent signal is read on a plate reader and the value as a function of compound concentration is used to determine the IC50. Compounds are also assessed for BACE1 and Cathepsin D activity using an FP Assay. Compounds to be assessed (e.g. compounds as described in the above examples) are serially diluted 1:3 with DMSO and each concentration point is transferred to a 96 well plate, 6 μL per well, followed by addition of 194 μL of assay buffer (100 mM sodium acetate, pH 4.5 with 0.001% Tween-20). A 10 μL compound sample from this plate is transferred to a well of a 384 well plate and combined with 10 μL per well of BACE1 enzyme (0.3 nM in assay buffer) or Cathepsin D enzyme (1.8 nM in assay buffer) and the plate is incubated at room temperature for 30 minutes.

BACE1 [1] = target: T1, BACE1 (Homo sapiens (Human), UniProt P56817); assay: BACE1 AlphaScreen assay (displacement of biotinylated BACE1 binding site probe); conditions: read-out: BACE1 AS IC50
T1 sequence (P56817 46-501): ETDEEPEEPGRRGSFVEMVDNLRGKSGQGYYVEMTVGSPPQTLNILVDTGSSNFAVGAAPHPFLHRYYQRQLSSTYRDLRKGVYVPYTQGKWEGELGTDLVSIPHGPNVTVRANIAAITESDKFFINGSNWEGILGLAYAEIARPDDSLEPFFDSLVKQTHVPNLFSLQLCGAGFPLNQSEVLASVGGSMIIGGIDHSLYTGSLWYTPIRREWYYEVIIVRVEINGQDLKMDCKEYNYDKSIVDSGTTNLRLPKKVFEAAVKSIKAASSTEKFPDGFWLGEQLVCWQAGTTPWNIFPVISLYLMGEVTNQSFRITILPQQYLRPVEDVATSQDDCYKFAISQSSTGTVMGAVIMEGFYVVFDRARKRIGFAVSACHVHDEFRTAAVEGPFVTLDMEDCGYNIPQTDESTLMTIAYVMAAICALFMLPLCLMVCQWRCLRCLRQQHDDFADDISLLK
Description: as §1

BACE1 [2] = target: T1, BACE1; assay: BACE1 FP assay; format: biochemical; conditions: pH 4.5
Description: as §1

[3] = test system: BACE1 inhibition in HEKp293 cells transfected with APP751 gene (SWE293); assay: SWE293 cellular assay: reduction of Aβ peptide production, ELISA; format: cell-based; conditions: Homo sapiens, read-out: SWE293 ED50
Description: BACE1 inhibition is also assessed in a cellular assay. HEKp293 cells transfected with APP751 gene (SWE293, American Type Culture Collection CRL-1563) are used to assess compounds for reduction in levels of Aβ peptide production. SWE293 cell medium is DMEM supplemented with 10% fetal bovine serum and 2 mM L-glutamine, 1.0 mM sodium pyruvate, 25 mM Hepes Buffer, 0.4 mg/mL geneticin (G418, Gibco BRL 860-181IIJ). Cells are maintained diluting 1:10 for 4 days in T-150 flask and 35 mL of cell media. For plating, cells are rinsed with 5 mL of 1×PBS, trypsinized with 4 mL of 0.05% Tripsin for 1 minute, and 12 mL of cell media is added. These are centrifuged at 1000 rpm for 4 minutes and the media aspirated, then 8 mL of media per flask is added. Based on cell count, appropriate amounts of cell and cell media are combined, and 180 μl per well are plated (96 well) and the plates are incubated overnight at 37° C., 5% CO2. Compounds to be tested are serially diluted 1:3 in DMSO and twice in media (without G418) in V-bottom plates and incubated at room temperature. Plated cells are washed with media, 3×50 μL per well and 17 μL per well of appropriate dilution of compound is added. Plates are incubated for 2 hours, and the wash steps, compound addition and incubation are repeated. Sample is transferred to capture plate (prepared with 266 antibody, see e.g. Johnson-Wood et al., PNAS February 1997, 94: 1550-1555), along with a standard curve of Aβ-40. ELISA assay is used to assess Aβ levels, washing with TBS, 0.05% Tween20 pH 7.5, then adding 1.3 mg/mL 3D6 antibody 1:900 in specimen diluents with thimericol is added (100 μl per well) and incubated for 1 hour. Wash step is repeated and Streptavidin-AP diluted 1:1000 in specimen diluents with thimerisol is added (100 μL per well) and incubated for 1 hour. Wash step is repeated and fluorescent substrate is added, 100 μL per well and incubated for 10 minutes followed by reading the fluorescent signal on a plate reader.

[4] = dose at which Aβ level is reduced by 50%, HEKp293 SWE293 cells

Cathepsin D, sequence (P07339 65-412, species assumed): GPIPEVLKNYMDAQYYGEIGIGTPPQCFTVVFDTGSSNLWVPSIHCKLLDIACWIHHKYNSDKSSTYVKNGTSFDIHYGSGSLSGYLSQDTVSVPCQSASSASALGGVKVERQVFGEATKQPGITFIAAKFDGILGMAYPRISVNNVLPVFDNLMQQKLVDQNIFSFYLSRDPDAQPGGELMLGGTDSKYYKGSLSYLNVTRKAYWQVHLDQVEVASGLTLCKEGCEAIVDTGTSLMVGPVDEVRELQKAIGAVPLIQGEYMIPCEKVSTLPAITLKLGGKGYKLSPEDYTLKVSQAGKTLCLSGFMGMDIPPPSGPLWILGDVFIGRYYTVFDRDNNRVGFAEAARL

SMILES	IC50 (Cathepsin D)	IC50 (BACE1 [1])	IC50 (BACE1 [2])	IC50 [3]	IC50 [3, 4]
C[C@@]1(c2cc(NC(=O)c3ccc(Cl)cc3)ccc2F)CC2(CCC2)OC(N)=N1 [Compound 9-141, (S)—N-(3-(6-amino-8-methyl-5-oxa-7-azaspiro[3.5]non-6-en-8-yl)-4-fluorophenyl)-4-chlorobenzamide]	> 30000 nM	17.5 nM	839 nM	109 nM	–
CC#Cc1cncc(-c2csc([C@]3(C)CC4(CCOCC4)OC(N)=N3)c2)c1 [Compound 8-104, (S)-4-methyl-4-(4-(5-(prop-1-ynyl)pyridin-3-yl)thiophen-2-yl)-1,9-dioxa-3-azaspiro[5.5]undec-2-en-2-amine]	14800 nM	16 nM	406 nM	157 nM	–
CC1(c2cc(NC(=O)c3ccc(C#N)cn3)ccc2F)N=C(N)OC2(CCC2)C1(F)F (centres unmarked) [Compound 9-161, N-(3-(6-amino-9,9-difluoro-8-methyl-5-oxa-7-azaspiro[3.5]non-6-en-8-yl)-4-fluorophenyl)-5-cyanopicolinamide]	> 30000 nM	13.5 nM	66 nM	–	38 nM
C[C@@]1(c2cc(NC(=O)c3ccc(F)cn3)ccc2F)CC2(CCC2)SC(N)=N1 [Compound 9-144, (S)—N-(3-(6-amino-8-methyl-5-thia-7-azaspiro[3.5]non-6-en-8-yl)-4-fluorophenyl)-5-fluoropicolinamide]	> 30000 nM	8 nM	27 nM	–	9 nM
C[C@@]1(c2cc(NC(=O)c3ccc(F)cn3)ccc2F)CC2(CCOCC2)OC(N)=N1 [Compound 9-128, (S)—N-(3-(2-amino-4-methyl-1,9-dioxa-3-azaspiro[5.5]undec-2-en-4-yl)-4-fluorophenyl)-5-fluoropicolinamide]	> 30000 nM	4 nM	112 nM	–	9 nM
CC1(c2cc(NC(=O)c3ccc(F)cn3)ccc2F)N=C(N)OC2(CCC2)C1(F)F (centres unmarked) [Compound 9-159, N-(3-(6-amino-9,9-difluoro-8-methyl-5-oxa-7-azaspiro[3.5]non-6-en-8-yl)-4-fluorophenyl)-5-fluoropicolinamide]	> 30000 nM	40 nM	210 nM	225 nM	–
CC1(c2cc(NC(=O)c3ccc(F)cn3)ccc2F)CC2(CCOCC2)OC(N)=N1 (centres unmarked) [Compound 9-120, N-(3-(2-amino-4-methyl-1,9-dioxa-3-azaspiro[5.5]undec-2-en-4-yl)-4-fluorophenyl)-5-fluoropicolinamide]	> 30000 nM	19 nM	282 nM	–	13 nM
CC#Cc1cncc(-c2cc([C@]3(C)CC4(CCOCC4)OC(N)=N3)sc2C)c1 [Compound 8-108, (S)-4-methyl-4-(5-methyl-4-(5-(prop-1-ynyl)pyridin-3-yl)thiophen-2-yl)-1,9-dioxa-3-azaspiro[5.5]undec-2-en-2-amine]	9320 nM	17.5 nM	1120 nM	–	485 nM
C[C@@]1(c2cc(NC(=O)c3ccc(Cl)cn3)ccc2F)CC2(CCC2)SC(N)=N1 [Compound 9-145, (S)—N-(3-(6-amino-8-methyl-5-thia-7-azaspiro[3.5]non-6-en-8-yl)-4-fluorophenyl)-5-chloropicolinamide]	> 30000 nM	4.5 nM	1.9 nM	–	2 nM
C[C@]1(c2cc(NC(=O)c3ccc(Cl)cn3)ccc2F)CC2(CCOCC2)SC(N)=N1 [Compound 9-152, (R)—N-(3-(2-amino-4-methyl-9-oxa-1-thia-3-azaspiro[5.5]undec-2-en-4-yl)-4-fluorophenyl)-5-chloropicolinamide]	10800 nM	–	1560 nM	–	–
COc1cnc(C(=O)Nc2ccc(F)c(C3(C)N=C(N)OC4(CCC4)C3(F)F)c2)cn1 (centres unmarked) [Compound 9-164, N-(3-(6-amino-9,9-difluoro-8-methyl-5-oxa-7-azaspiro[3.5]non-6-en-8-yl)-4-fluorophenyl)-5-methoxypyrazine-2-carboxamide]	> 30000 nM	–	–	–	195 nM

Second part, led by results:

IC50 (Cathepsin D)	IC50 (BACE1 [1])	IC50 (BACE1 [2])	SMILES	IC50 [3]	IC50 [3, 4]
5570 nM	26 nM	960 nM	CC#Cc1cncc(-c2csc([C@]3(C)CC4(CCC(F)(F)CC4)OC(N)=N3)c2)c1 [Compound 8-110, (S)-9,9-difluoro-4-methyl-4-(4-(5-(prop-1-ynyl)pyridin-3-yl)thiophen-2-yl)-1-oxa-3-azaspiro[5.5]undec-2-en-2-amine]	–	305 nM
21500 nM	> 1000 nM	8490 nM	C[C@]1(c2cc(NC(=O)c3ccc(F)cn3)ccc2F)CC2(CCOCC2)SC(N)=N1 [Compound 9-149, (R)—N-(3-(2-amino-4-methyl-9-oxa-1-thia-3-azaspiro[5.5]undec-2-en-4-yl)-4-fluorophenyl)-5-fluoropicolinamide]	–	–
> 30000 nM	9.7 nM	5 nM	C[C@@]1(c2cc(NC(=O)c3ccc(Cl)cn3)ccc2F)CC2(CCOCC2)SC(N)=N1 [Compound 9-151, (S)—N-(3-(2-amino-4-methyl-9-oxa-1-thia-3-azaspiro[5.5]undec-2-en-4-yl)-4-fluorophenyl)-5-chloropicolinamide]	–	0.4 nM
14700 nM	2 nM	32 nM	COc1cccnc1Nc1ccc(F)c([C@]2(C)CC3(CCOCC3)SC(N)=N2)c1 [Compound 13-182, (S)-4-(2-fluoro-5-(3-methoxypyridin-2-ylamino)phenyl)-4-methyl-9-oxa-1-thia-3-azaspiro[5.5]undec-2-en-2-amine]	–	< 123 nM
> 30000 nM	11 nM	321 nM	C[C@@]1(c2cc(NC(=O)c3ccc(F)cn3)ccc2F)CC2(CCC2)OC(N)=N1 [Compound 9-126, (S)—N-(3-(6-amino-8-methyl-5-oxa-7-azaspiro[3.5]non-6-en-8-yl)-4-fluorophenyl)-5-fluoropicolinamide]	–	80 nM
1880 nM	< 7 nM	160 nM	CC#Cc1cncc(-c2csc(C3(C)CC4(CCOCC4)SC(N)=N3)c2)c1 (centres unmarked) [Compound 8-113, 4-methyl-4-(4-(5-(prop-1-ynyl)pyridin-3-yl)thiophen-2-yl)-9-oxa-1-thia-3-azaspiro[5.5]undec-2-en-2-amine]	–	184 nM
> 30000 nM	29 nM	366 nM	CC1(c2cc(NC(=O)c3ccc(F)cn3)ccc2F)CC2(CCC2)OC(N)=N1 (centres unmarked) [Compound 9-125, N-(3-(6-amino-8-methyl-5-oxa-7-azaspiro[3.5]non-6-en-8-yl)-4-fluorophenyl)-5-fluoropicolinamide]	–	67 nM
> 30000 nM	6.8 nM	29 nM	C[C@@]1(c2cc(NC(=O)c3ccc(F)cn3)ccc2F)CC2(CCOCC2)SC(N)=N1 [Compound 9-148, (S)—N-(3-(2-amino-4-methyl-9-oxa-1-thia-3-azaspiro[5.5]undec-2-en-4-yl)-4-fluorophenyl)-5-fluoropicolinamide]	–	1.4 nM
> 30000 nM	–	33 nM	COc1cnc(C(=O)Nc2ccc(F)c([C@]3(C)CC4(CCOCC4)SC(N)=N3)c2)cn1 [Compound 9-153, (S)—N-(3-(2-amino-4-methyl-9-oxa-1-thia-3-azaspiro[5.5]undec-2-en-4-yl)-4-fluorophenyl)-5-methoxypyrazine-2-carboxamide]	–	< 123 nM

Source: patent publication US9493485B2, “Spirocyclic dihydro-thiazine and dihydro-oxazine BACE inhibitors, and compositions and uses thereof” (Imago Pharmaceuticals, Inc., priority 2012, dated 2016)
